SMILES strings stand for the structures.

The target of the assay is Human Factor D (Homo sapiens (Human), UniProt P00746). Put plainly: Human Factor D assay. As to conditions: Human Factor D 80 nM, substrate Z-L-Lys-SBzl, assay of Example 12. Format: biochemical. The protocol: Human Factor D (purified from human serum, Complement Technology, Inc.) at 80 nM final concentration is incubated with test compound at various concentrations for 5 minutes at room temperature in 50 mM Tris, 1M NaCl, pH 7.5. A synthetic substrate Z-L-Lys-SBzl and DTNB (Ellman's reagent) are added to final concentrations of 100 μM each. Absorbance at 405 nm (A405) is recorded at 30 second intervals for 30 minutes using a microplate spectrophotometer. IC50 values are calculated by nonlinear regression of complement Factor D reaction rates as a function of test compound concentration.
Chain of Human Factor D (P00746 26-253): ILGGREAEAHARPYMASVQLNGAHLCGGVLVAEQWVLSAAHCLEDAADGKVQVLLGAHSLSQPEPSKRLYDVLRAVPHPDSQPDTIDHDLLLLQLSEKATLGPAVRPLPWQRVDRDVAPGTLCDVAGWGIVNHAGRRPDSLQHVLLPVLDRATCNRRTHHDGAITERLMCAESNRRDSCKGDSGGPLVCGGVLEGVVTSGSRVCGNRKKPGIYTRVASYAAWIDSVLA
The assay of Example 12 was used to determine the IC50's of the compounds. Other standard Factor D inhibition assays are also available.

As usually defined, the IC50 is the concentration that inhibits the measured activity by half. A high value points to lower potency. The compound `Cc1cccc(NC(=O)[C@@H]2CCC(F)CCN2C(=O)Cn2cc(C(N)=O)c3cc(C(=O)NS(=O)(=O)C4CC4)ccc32)n1` (stereo partly drawn) [compound 8, N5-(cyclopropylsulfonyl)-1-(2-((2S)-5-fluoro-2-((6-methylpyridin-2-yl)carbamoyl)azepan-1-yl)-2-oxoethyl)-1H-indole-3,5-dicarboxamide] showed an IC50 of more than 10 µM.

Source of the values: patent US11649229B2, “Amide compounds for treatment of immune and inflammatory disorders” (Achillion Pharmaceuticals, Inc., priority 2015, dated 2023).
